Test [1] has as its system B16-F10-luc2. As to the kind of experiment: Cytotoxicity against mouse B16-F10-Luc2 cells expressing human EGFR measured after 72 hrs by resazurin assay. The class given is cell-based. The settings on record: B16-F10-luc2, 72 h.
In test [2] the test system is B16-F10-luc2. As to the kind of experiment: Cytotoxicity against mouse B16-F10-Luc2 cells expressing human EGFR measured after 72 hrs in presence of AB-TCO2 conjugates by resazurin assay. The class given is functional, cell-based. The settings on record: B16-F10-luc2, 72 h.
In test [3] the test system is B16-F10-luc2. Description: Cytotoxicity against mouse B16-F10-Luc2 cells expressing human EGFR measured after 72 hrs in presence of AB-TCO3 conjugates by resazurin assay. The test is classed as functional, cell-based. The settings on record: B16-F10-luc2, 72 h.
For test [4], the system named is B16-F10-luc2. Description: Cytotoxicity against mouse B16-F10-Luc2 cells expressing human EGFR measured after 72 hrs in presence of AB-TCO4 conjugates by resazurin assay. The test is classed as functional, cell-based. The settings on record: B16-F10-luc2, 72 h.
For test [5], the system named is B16-F10-luc2. As to the kind of experiment: Cytotoxicity against mouse B16-F10-Luc2 cells measured after 72 hrs by resazurin assay. The class given is cell-based. The settings on record: B16-F10-luc2, 72 h.
The subject of test [6] is B16-F10-luc2. As to the kind of experiment: Cytotoxicity against mouse B16-F10-Luc2 cells measured after 72 hrs in presence of AB-TCO2 conjugate by resazurin assay. The class given is functional, cell-based. To be noted: B16-F10-luc2, 72 h.
Test [7] concerns B16-F10-luc2. As to the kind of experiment: Cytotoxicity against mouse B16-F10-Luc2 cells in the measured after 72 hrs in presence of AB-TCO3 conjugate by resazurin assay. To be noted: B16-F10-luc2, 72 h. The test is classed as functional, cell-based.
In test [8] the test system is B16-F10-luc2. As to the kind of experiment: Anti tumour activity in C57BL/6 mouse implanted with B16-F10-Luc2 murine cells assessed as median survival time at 5.9 mg/kg, iv administered for 6 hrs followed by antibody conjugate treatment. The class given is functional.
For test [9], the system named is B16-F10-luc2. As to the kind of experiment: Cytotoxicity against mouse B16-F10-Luc2 cells expressing EGFR measured after 72 hrs in absence of cetuximab by resazurin assay. The test is classed as functional, cell-based. To be noted: B16-F10-luc2, 72 h.
Test [10] has as its system B16-F10-luc2. Description: Cytotoxicity against mouse B16-F10-Luc2 cells expressing EGFR measured after 72 hrs in presence of 3.3 uM cetuximab by resazurin assay. The class given is functional, cell-based. The settings on record: B16-F10-luc2, 72 h.
In test [11] the test system is B16-F10-luc2. Description: Anti tumour activity in C57BL/6 mouse implanted with B16-F10-Luc2 murine cells assessed as median survival time at 4.5 mg/kg, ip administered for 24 hrs followed by antibody conjugate treatment. The test is classed as functional.

From ChEMBL document CHEMBL4825738, “EGFR-targeted prodrug activation using bioorthogonal alkene-azide click-and-release chemistry” (Bioorg Med Chem, 2021) come the findings set out here.

Take `COc1cccc2c1C(=O)c1c(O)c3c(c(O)c1C2=O)C[C@@](O)(C(=O)CO)C[C@@H]3O[C@H]1C[C@H](NC(=O)OCc2ccc(N=[N+]=[N-])cc2)[C@H](O)[C@H](C)O1`: the IC50 in test [1] amounted to 1.68 µM; in test [2], 0.78 µM; in test [3], 0.12 µM; in test [4], 2.09 µM; in test [5], 4.49 µM; in test [6], 5.14 µM. The IC50 in [7] came to 3.44 µM. Also, the MST in test [8] stood at 26 days.

As for `COc1cccc2c1C(=O)c1c(O)c3c(c(O)c1C2=O)C[C@@](O)(C(=O)CO)C[C@@H]3O[C@H]1C[C@H](N)[C@H](O)[C@H](C)O1` [DOXORUBICIN], the IC50 turned out to be 0.04 µM in [1], 0.11 µM in test [5], 0.04 µM in [9] and 0.09 µM in test [10]. Also, in test [11], the MST turned out to be 39 days.
